In the supplement of paper PMC13380429:

Experiments:
[1] = system: A549-ACE2 infected with SARS-CoV-2; assay: morphology score (similarity to uninfected cells); higher = more like uninfected cells; conditions: 24 h
Calu-3 [2] = assay: relative viability EC50 (midpoint between 100% and the lowest measured viability); higher = less toxic; conditions: 72 h
Vero E6 [3] = assay: as above; conditions: 72 h
U2OS [4] = assay: as above; conditions: 72 h
Caco-2 [5] = assay: as above; conditions: 72 h
A549-ACE2 = assay: drug-induced phospholipidosis relative to tamoxifen; higher = more phospholipidosis
[6] = system: A549-ACE2 infected with SARS-CoV-2; assay: SARS-CoV-2 infection rate relative to DMSO; higher = more infection; conditions: 24 h
HepG2 [7] = assay: cell viability relative to DMSO; higher = less toxic; conditions: 72 h
Calu-3 [8] = assay: as above; conditions: 72 h
Vero E6 [9] = assay: as above; conditions: 72 h
U2OS [10] = assay: as above; conditions: 72 h
Caco-2 [11] = assay: as above; conditions: 72 h
[12] = system: A549-ACE2 infected with SARS-CoV-2; assay: cell count relative to DMSO; higher = less toxic; conditions: 24 h
HepG2 [13] = assay: drug sensitivity score (DSS) for viability; higher = more toxic; extreme values may be limits of the assay; conditions: 72 h
Calu-3 [14] = assay: as above; conditions: 72 h
Vero E6 [15] = assay: as above; conditions: 72 h
U2OS [16] = assay: as above; conditions: 72 h
Caco-2 [17] = assay: as above; conditions: 72 h
HepG2 [18] = assay: relative viability EC50 (midpoint between 100% and the lowest measured viability); higher = less toxic; conditions: 72 h

CC(=O)c1cc([N+](=O)[O-])c(Sc2ccc(F)cc2F)s1
Conditions	SARS-CoV-2 infection rate, [6] [%]	cell count, [12] [%]	cell viability, Caco-2 [11] [%]	cell viability, Calu-3 [8] [%]	cell viability, HepG2 [7] [%]	cell viability, U2OS [10] [%]	cell viability, Vero E6 [9] [%]	morphology score, [1]
1 nM	–	–	98	91	110	95.3	108	–
10 nM	–	–	96.6	95.3	105	99.3	98.8	–
100 nM	–	–	103	105	106	95.2	101	–
0.3 µM	98	99	–	–	–	–	–	0.06
1000 nM	–	–	87.4	98.6	100	101	98.1	–
3 µM	106	100	–	–	–	–	–	-0.18
10 µM	71	81	–	–	–	–	–	0.38
10000 nM	–	–	31.8	101	58.5	80	95.6	–
30 µM	55	58	–	–	–	–	–	0.17

Conditions	drug sensitivity score	relative viability EC50 [nM]
Caco-2 [5]	–	1810
Caco-2 [17]	5.8	–
Calu-3 [2]	–	> 10000
Calu-3 [14]	0	–
HepG2 [13]	2.1	–
U2OS [4]	–	> 10000
U2OS [16]	0.5	–
Vero E6 [3]	–	> 10000
Vero E6 [15]	0	–

drug-induced phospholipidosis [%], A549-ACE2
Conditions	0.3 µM	0.833333 µM	3.33333 µM	6.66667 µM	30 µM
24 h	3.19	-2.16	10.1	11.8	19.3
48 h	2.73	-1.61	2.36	16.5	–
72 h	0.714	-1.68	-2.13	11.8	23.5

COc1cc(-c2cc(-c3cccc(O)c3)cnc2N)cc(OC)c1OC
Conditions	SARS-CoV-2 infection rate, [6] [%]	cell count, [12] [%]	cell viability, Caco-2 [11] [%]	cell viability, Calu-3 [8] [%]	cell viability, HepG2 [7] [%]	cell viability, U2OS [10] [%]	cell viability, Vero E6 [9] [%]	morphology score, [1]
1 nM	–	–	101	87.7	94.1	95.8	99.7	–
10 nM	–	–	103	93.6	94.6	93.7	103	–
100 nM	–	–	105	92.3	93.8	101	97.4	–
0.3 µM	101	100	–	–	–	–	–	0.01
1000 nM	–	–	101	87.6	98.4	91	106	–
3 µM	103	99	–	–	–	–	–	0.39
10 µM	93	105	–	–	–	–	–	0.31
10000 nM	–	–	79.4	84.6	74.8	64.5	99	–
30 µM	91	84	–	–	–	–	–	0.16

Conditions	drug sensitivity score	relative viability EC50 [nM]
Caco-2 [5]	–	> 10000
Caco-2 [17]	0.6	–
Calu-3 [2]	–	> 10000
Calu-3 [14]	0	–
HepG2 [13]	1.2	–
U2OS [16]	3.1	–
Vero E6 [3]	–	> 10000
Vero E6 [15]	0	–

drug-induced phospholipidosis [%], A549-ACE2
Conditions	0.3 µM	0.833333 µM	3.33333 µM	6.66667 µM	10 µM	30 µM
24 h	4	3.08	6.21	12	15.9	47.9
48 h	3.78	1.52	1.5	4.27	9.43	62.2
72 h	4.57	0.15	0.0757	1.61	5.86	65.7

Cc1ccccc1N(C)C(=O)c1ccc([S+]([O-])c2nccs2)c([N+](=O)[O-])c1 (configuration not stated)
Conditions	SARS-CoV-2 infection rate, [6] [%]	cell count, [12] [%]	cell viability, Caco-2 [11] [%]	cell viability, Calu-3 [8] [%]	cell viability, HepG2 [7] [%]	cell viability, U2OS [10] [%]	cell viability, Vero E6 [9] [%]	morphology score, [1]
1 nM	–	–	96.9	102	106	98.5	103	–
10 nM	–	–	103	97.6	102	99.5	98.2	–
0.1 µM	101	99	–	–	–	–	–	-0.04
100 nM	–	–	98.5	102	95.1	95.6	100	–
0.3 µM	105	104	–	–	–	–	–	0.06
1 µM	92	99	–	–	–	–	–	0.22
1000 nM	–	–	82.8	103	89.5	41.7	88.1	–
3 µM	74	74	–	–	–	–	–	0.22
10000 nM	–	–	0.2	2.3	0.2	0	0.1	–

Conditions	drug sensitivity score	relative viability EC50 [nM]
Caco-2 [5]	–	1860
Caco-2 [17]	8.4	–
Calu-3 [2]	–	3360
Calu-3 [14]	5.2	–
HepG2 [13]	7.3	–
HepG2 [18]	–	2290
U2OS [4]	–	805
U2OS [16]	12.5	–
Vero E6 [3]	–	2190
Vero E6 [15]	7.5	–

drug-induced phospholipidosis [%], A549-ACE2
Conditions	24 h	48 h	72 h
0.3 µM	6.61	5.74	-1.4
0.833333 µM	10.2	5.8	-1.83

COc1cc(N2CCN(C)CC2)ccc1Nc1nccc(-c2cn(C)c3cnccc23)n1 [AZ191]
Conditions	SARS-CoV-2 infection rate, [6] [%]	cell count, [12] [%]	cell viability, Caco-2 [11] [%]	cell viability, Calu-3 [8] [%]	cell viability, HepG2 [7] [%]	cell viability, U2OS [10] [%]	cell viability, Vero E6 [9] [%]	morphology score, [1]
1 nM	–	–	96.7	96.4	97.3	97.9	93.6	–
10 nM	–	–	94.4	93.6	93.8	104	101	–
0.1 µM	95	106	–	–	–	–	–	0.14
100 nM	–	–	96.6	93.3	98.4	99.6	98.5	–
0.3 µM	103	102	–	–	–	–	–	0.19
1 µM	95	116	–	–	–	–	–	0.38
1000 nM	–	–	98.5	101	87.1	103	95	–
3 µM	53	120	–	–	–	–	–	0.74
10000 nM	–	–	64.4	102	22.3	64.5	62.6	–

Conditions	drug sensitivity score	relative viability EC50 [nM]
Caco-2 [17]	1.9	–
Calu-3 [2]	–	> 10000
Calu-3 [14]	0	–
HepG2 [13]	6.4	–
HepG2 [18]	–	1900
U2OS [16]	1.5	–
Vero E6 [15]	2.6	–

drug-induced phospholipidosis [%], A549-ACE2
Conditions	0.3 µM	0.833333 µM	3.33333 µM	6.66667 µM	10 µM
24 h	1.95	-3.91	0.16	32.4	35.2
48 h	-0.41	-2.25	-2.09	41.3	–
72 h	3.05	-1.34	-1.23	–	–

Cn1nc(C(C)(C)C)cc1C(=O)N[C@@H](Cc1cccc(Cl)c1)C(=O)NCC#N [Cathepsin Inhibitor 1]
Conditions	SARS-CoV-2 infection rate, [6] [%]	cell count, [12] [%]	morphology score, [1]
0.3 µM	56	117	0.72
3 µM	33	125	0.85
10 µM	20	121	0.91
30 µM	17	121	0.91

drug-induced phospholipidosis [%], A549-ACE2
Conditions	0.3 µM	0.833333 µM	3.33333 µM	6.66667 µM	10 µM	30 µM
24 h	6.59	1.92	9.11	12.3	12.3	38.3
48 h	3.88	2.55	8.4	13.7	15.4	38.9
72 h	7.75	3.09	6.53	12.2	10.8	42
